Data on two molecules can be found in ChEMBL document CHEMBL5113370, “Primed for global coronavirus pandemic: Emerging research and clinical outcome” (Eur J Med Chem, 2021).

By EC50 is commonly meant the midpoint of the concentration-response curve. One may read the CC50 as the concentration giving 50% cytotoxicity. In general, IC50 refers to the concentration at which inhibition is half-maximal.

Data set [1] relates to SARS-CoV-2. Put plainly: Antiviral activity against SARS-CoV 2 nCoV-2019BetaCoV/Wuhan/WIV04/2019 infected in african green monkey Vero E6 cells measured after 48 hrs. Format: functional, organism-based. The conditions noted are these: Severe acute respiratory syndrome coronavirus 2, nCoV-2019BetaCoV/Wuhan/WIV04/2019, Vero C1008, 48 h.
Data set [2] is described as follows: Selectivity index, ratio of IC50 for African green monkey Vero cells to IC50 for antiviral activity against SARS-CoV 2 nCoV-2019BetaCoV/Wuhan/WIV04/2019. Format: toxicity. The conditions noted are these: read-out: Ratio IC50.
Data set [3] is described as follows: Cytotoxicity against African green monkey Vero cells by CCK8 assay method. It counts as toxicity, cell-based. Conditions: chlorocebus sabaeus. (Formazan colour is commonly taken as a measure of viable cells.)
For data set [4], the system named is SARS-CoV-2. Put plainly: Antiviral activity against SARS-CoV 2 infected in african green monkey Vero E6 cells by immunofluorescence assay. It counts as functional, organism-based. Conditions: Severe acute respiratory syndrome coronavirus 2, Vero C1008.

Consider `NC(=O)c1ncn([C@@H]2O[C@H](CO)[C@@H](O)[C@H]2O)n1` [RIBAVIRIN], for which, in the data set on SARS-CoV-2 [1], the response was half-maximal at 110 µM (EC50). The selectivity ratio in data set [2] was greater than 3.65. Moreover, the CC50 in data set [3] was greater than 400 µM.
Turning to `CCN(CC)CCOc1ccc2c(c1)C(=O)c1cc(OCCN(CC)CC)ccc1-2` [TILORONE], half-maximal inhibition in the data set with SARS-CoV-2 [4] (IC50) was put at 4.09 µM.
